Laboratory results reported in patent publication US8022047B2, “Combination anticancer agents” (Chugai Seiyaku Kabushiki Kaisha, priority 2005, dated 2011).
Where two headings read alike, the source gives them in different places.

Columns and labels:
[1] = tested on: human colorectal cancer HCT116 xenograft
Experimental: The human colorectal cancer cell line HCT116 was purchased from ATCC. Cells were monolayer cultured in McCoy's 5a medium containing 2 mM L-glutamine and 10% (v/v) fetal bovine serum.
Five-week old male athymic nude mice (BALB/c nu/nu) were purchased from Charles River Japan. The mice were reared for at least one week prior to the experiment at the animal facility of the research institute.
A single cell suspension of HCT116 (8×10^6 cells per mouse) was inoculated subcutaneously into the right side of the abdomen of each mouse. The tumor size of each mouse was measured twice a week and the tumor volume was estimated using the ab^2/2 formula (a and b refer to the length and width of the tumor, respectively). Randomization and administration pharmaceuticals were begun the day the tumor volume exceeded 100 mm^3
The dosage is as follows.
Capecitabine was dissolved and diluted in 40 mM citric acid buffer (pH6) containing 5% gum arabic.

[2] = tested on: human lung cancer Calu-6 xenograft; assay: Antitumor effect in xenograft model, compound 2A plus CDDP or carboplatin (Example 4); format: in vivo; conditions: mice; i.v. once in a three-week period
Experimental: The human lung cancer cell line Calu-6 was purchased from ATCC.
CPT-11, CDDP, and carboplatin were purchased from Daiichi Pharmaceuticals, Nippon Kayaku, and Bristol-Meyers Squibb, respectively.
Compound 2A, CPT-11, CDDP, and carboplatin were dissolved and diluted in a saline solution. […] CDDP and carboplatin were intravenously administered once in a three-week period.
In one therapeutic cycle, compound 2A and CPT-11 were administered once a week for three consecutive weeks, and CDDP and carboplatin were administered once in the three-week period.

[3] = tested on: human pancreatic cancer Capan-1 xenograft; conditions: mice; i.v. once a week for four consecutive weeks
Experimental: A single cell suspension of Capan-1 (8.4×10^6 cells per mouse) was inoculated subcutaneously into the right side of the abdomen of each mouse. The tumor size of each mouse was measured twice a week and the tumor volume was estimated using the ab^2/2 formula (a and b refer to the length and width of the tumor, respectively). Randomization and administration of pharmaceuticals were begun the day the tumor volume exceeded 100 mm^3
Gemcitabine was dissolved and diluted in physiological saline, and intravenously administered once a week for four consecutive weeks.
Gemcitabine was administered once a week for four consecutive weeks.

CCCCCOC(=O)Nc1nc(=O)n([C@@H]2O[C@H](C)[C@@H](O)[C@H]2O)cc1F [capecitabine]
MTD (maximum tolerated dose) ([1]; mouse, in vivo, po): 360 mg/kg/injection

N.N.O=C([O-])C1(C(=O)[O-])CCC1.[Pt+2] [carboplatin]
MTD (maximum tolerated dose) [2]: 50 mg/kg/injection

CCCCCN1C=Nc2cccc3nc4c(c1c23)Cn1c-4cc2c(c1=O)COC(=O)[C@@]2(CC)OC(=O)CN(C)C(=O)CN.Cl [compound 2A, (9S)-9-ethyl-9-(glycyl-sarcosyloxy)-1-pentyl-1H,12H-pyrano[3″,4″:6′,7′]indolizino[1′,2′:6,5]pyrido[4,3,2-de]quinazoline-10,13(9H,15H)-dione hydrochloride]
MTD (maximum tolerated dose) ([1]; mice, i.v. once during a three-week period, actually measured weight of the hydrochloride): 60 mg/kg/injection
MTD (maximum tolerated dose) as free base ([1]; mice, i.v. once during a three-week period, weight converted to free base): 47 mg/kg/injection

Nc1ccn([C@@H]2O[C@H](CO)[C@@H](O)C2(F)F)c(=O)n1 [gemcitabine]
MTD (maximum tolerated dose) [3]: 400 mg/kg/injection
